Biological target: T1, Full-length USP19 (Homo sapiens, UniProt O94966)
T1 construct: Full-length USP19 was purchased from Boston Biochem (E-576); purchased Boston Biochem E-576
T1 sequence (O94966 1-1318): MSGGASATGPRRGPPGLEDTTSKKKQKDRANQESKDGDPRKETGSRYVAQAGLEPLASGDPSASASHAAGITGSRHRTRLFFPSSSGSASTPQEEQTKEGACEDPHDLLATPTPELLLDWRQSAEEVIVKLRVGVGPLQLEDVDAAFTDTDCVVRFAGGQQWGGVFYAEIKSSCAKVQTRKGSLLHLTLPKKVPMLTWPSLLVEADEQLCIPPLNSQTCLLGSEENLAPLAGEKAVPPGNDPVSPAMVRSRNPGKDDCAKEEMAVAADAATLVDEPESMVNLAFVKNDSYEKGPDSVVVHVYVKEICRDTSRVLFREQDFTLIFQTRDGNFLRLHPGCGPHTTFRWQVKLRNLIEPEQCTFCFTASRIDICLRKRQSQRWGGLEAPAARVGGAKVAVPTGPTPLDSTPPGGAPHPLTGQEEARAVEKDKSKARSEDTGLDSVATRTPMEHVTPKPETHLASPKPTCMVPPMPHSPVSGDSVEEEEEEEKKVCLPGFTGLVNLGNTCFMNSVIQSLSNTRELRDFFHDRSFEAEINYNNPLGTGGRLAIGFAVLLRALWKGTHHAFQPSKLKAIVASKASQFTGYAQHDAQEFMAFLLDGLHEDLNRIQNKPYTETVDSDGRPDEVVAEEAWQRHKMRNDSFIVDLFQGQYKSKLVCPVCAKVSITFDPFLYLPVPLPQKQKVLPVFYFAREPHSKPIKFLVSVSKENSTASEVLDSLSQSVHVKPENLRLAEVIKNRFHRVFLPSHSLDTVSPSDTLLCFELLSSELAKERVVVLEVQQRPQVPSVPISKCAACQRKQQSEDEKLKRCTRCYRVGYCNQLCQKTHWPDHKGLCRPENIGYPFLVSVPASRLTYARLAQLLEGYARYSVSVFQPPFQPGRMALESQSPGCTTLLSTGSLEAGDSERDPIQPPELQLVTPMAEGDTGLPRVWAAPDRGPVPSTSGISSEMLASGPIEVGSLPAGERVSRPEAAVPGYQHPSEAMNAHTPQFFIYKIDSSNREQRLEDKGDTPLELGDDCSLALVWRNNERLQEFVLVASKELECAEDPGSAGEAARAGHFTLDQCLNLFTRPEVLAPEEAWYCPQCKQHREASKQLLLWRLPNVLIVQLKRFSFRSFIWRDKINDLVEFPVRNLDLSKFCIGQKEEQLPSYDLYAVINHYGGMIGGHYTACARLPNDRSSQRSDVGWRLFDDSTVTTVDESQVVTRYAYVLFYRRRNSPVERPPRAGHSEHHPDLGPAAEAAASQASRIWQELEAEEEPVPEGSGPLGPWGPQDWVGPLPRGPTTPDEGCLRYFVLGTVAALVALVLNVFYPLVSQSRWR
Assay: USP19 fluorescence polarisation (FP) homogeneous assay with Ubiquitin-Lys-TAMRA substrate
Assay type: biochemical
Details: 2.5 nM USP19, 30 min pre-incubation, average of at least two duplicate experiments
Procedure, shortened: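 Full-length USP19 preincubated 30 min at RT with inhibitor (200 μM to 2 μM series, 8–18 points) before adding 500 nM Ubiquitin-Lys-TAMRA substrate.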

Structure (SMILES)	IC50 [µM]
CC(C)C1CNCCN1C(=O)N1CCC(O)(Cn2cnc(-c3ccccc3)cc2=O)C2(CCCC2)C1 (stereo not drawn) [Example 208, 3-((10-Hydroxy-7-(2-isopropylpiperazine-1-carbonyl)-7-azaspiro[4.5]decan-10-yl)methyl)-6-phenylpyrimidin-4(3H)-one]	50 to 250
O=C1COCCN1CC1(O)CCN(C(=O)N2CCOC[C@H]2c2ccccc2)CC12CCCC2 (stereo partly drawn) [Example 117, 4-((10-Hydroxy-7-((R)-3-phenylmorpholine-4-carbonyl)-7-azaspiro[4.5]decan-10-yl)methyl)morpholin-3-one]	5 to 50
O=C(NCc1ccccc1)N1CCC(O)(Cn2cnc(N3CCOCC3)cc2=O)C2(CCCC2)C1 (stereo not drawn) [Example 203, N-Benzyl-10-hydroxy-10-((4-morpholino-6-oxopyrimidin-1(6H)-yl)methyl)-7-azaspiro[4.5]decane-7-carboxamide]	50 to 250
COc1cc2ncn(CC3(O)CCN(C(=O)[C@H](C)CC4CCCCC4)CC34CCCC4)c(=O)c2cc1OC (stereo partly drawn) [Example 52, 3-((7-((R)-3-Cyclohexyl-2-methylpropanoyl)-10-hydroxy-7-azaspiro[4.5]decan-10-yl)methyl)-6,7-dimethoxyquinazolin-4(3H)-one]	0.5 to 5
C[C@H](CC(F)(F)F)C(=O)N1CCC(O)(Cn2ccc3nc(N4CCOCC4)ncc3c2=O)C2(CCCC2)C1 (stereo partly drawn) [Example 60, 6-((10-Hydroxy-7-((R)-4,4,4-trifluoro-2-methylbutanoyl)-7-azaspiro[4.5]decan-10-yl)methyl)-2-morpholinopyrido[4,3-d]pyrimidin-5(6H)-one]	0.5 to 5
CN(C)c1cc(=O)n(C[C@]2(O)CCN(C(=O)N3CCNC[C@H]3c3ccccc3)CC23CCCC3)cn1 [Example 318, 6-(Dimethylamino)-3-(((S)-10-hydroxy-7-((R)-2-phenylpiperazine-1-carbonyl)-7-azaspiro[4.5]decan-10-yl)methyl)pyrimidin-4(3H)-one]	< 0.5
Cn1nccc1-c1cc(=O)n(C[C@]2(O)CCN(C(=O)N3CCOC[C@H]3c3ccccc3)CC23CCCC3)cn1 [Example 224, 3-(((S)-10-Hydroxy-7-((R)-3-phenylmorpholine-4-carbonyl)-7-azaspiro[4.5]decan-10-yl)methyl)-6-(1-methyl-1H-pyrazol-5-yl)pyrimidin-4(3H)-one]	< 0.5
O=C(N1CC[C@@](O)(Cn2cnc(C3CC3)cc2=O)C2(CCCC2)C1)N1CCOC[C@H]1c1ccccc1 [Example 222, 6-Cyclopropyl-3-(((S)-10-hydroxy-7-((R)-3-phenylmorpholine-4-carbonyl)-7-azaspiro[4.5]decan-10-yl)methyl)pyrimidin-4(3H)-one]	< 0.5
C[C@H](CC(F)(F)F)C(=O)N1CCC(O)(Cn2ccc3nc(N(C)C)ncc3c2=O)C2(CCCC2)C1 (stereo partly drawn) [Example 58, 2-(Dimethylamino)-6-((10-hydroxy-7-((R)-4,4,4-trifluoro-2-methylbutanoyl)-7-azaspiro[4.5]decan-10-yl)methyl)pyrido[4,3-d]pyrimidin-5(6H)-one]	0.5 to 5
COc1cc(=O)n(C[C@]2(O)CCN(C(=O)N3CCNC[C@H]3c3ccccc3)CC23CCCC3)cn1 [Example 324, 3-(((S)-10-Hydroxy-7-((R)-2-phenylpiperazine-1-carbonyl)-7-azaspiro[4.5]decan-10-yl)methyl)-6-methoxypyrimidin-4(3H)-one]	< 0.5
C[C@H](CC1CCCCC1)C(=O)N1CCC(O)(Cn2cc(S(C)(=N)=O)c(Cl)cc2=O)C2(CCCC2)C1 (stereo partly drawn) [Example 71, 4-Chloro-1-((7-((R)-3-cyclohexyl-2-methylpropanoyl)-10-hydroxy-7-azaspiro[4.5]decan-10-yl)methyl)-5-(S-methylsulfonimidoyl)pyridin-2(1H)-one]	< 0.5
C[C@H](CC1CCCCC1)C(=O)N1CCC(O)(Cn2ccc3sccc3c2=O)C2(CCCC2)C1 (stereo partly drawn) [Example 142, 5-((7-((R)-3-Cyclohexyl-2-methylpropanoyl)-10-hydroxy-7-azaspiro[4.5]decan-10-yl)methyl)thieno[3,2-c]pyridin-4(5H)-one]	5 to 50

— patent US20220033397A1, “PHARMACEUTICAL COMPOUNDS AND THEIR USE AS INHIBITORS OF UBIQUITIN SPECIFIC PROTEASE 19 (USP19)” (ALMAC DISCOVERY LIMITED, priority 2018, published 2022)
